Data published in PubChem BioAssay (NCI).
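Step 1: Grow cells in 96-well plates. Step 2: Expose to compound for 48 hours at 5 concentrations. Step 3: Interpolate endpoints linearly; if unreached, use highest concentration. Definition used: TGI = concentration required for complete inhibition of growth.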

Legend:
Test in all cases: growth of human tumour cells (NCI), 48 h
BT-549 breast = system: BT-549 breast
A549 NSCLC = system: A549 NSCLC
HS 578T breast = system: HS 578T breast
SW-620 colon = system: SW-620 colon
SN12C renal = system: SN12C renal
NCI-H226 lung = system: NCI-H226 lung
HL-60(TB) leukemia = system: HL-60(TB) leukemia
OVCAR-5 ovarian = system: OVCAR-5 ovarian
OVCAR-3 ovarian = system: OVCAR-3 ovarian
UO-31 renal = system: UO-31 renal
COLO 205 colon = system: COLO 205 colon
A498 renal = system: A498 renal
KM12 colon = system: KM12 colon
M14 melanoma = system: M14 melanoma
HT29 colon = system: HT29 colon
RXF 393 renal = system: RXF 393 renal
MDA-MB-231 breast = system: MDA-MB-231 breast
CCRF-CEM leukemia = system: CCRF-CEM leukemia
SNB-75 CNS = system: SNB-75 CNS
SF-539 CNS = system: SF-539 CNS
SF-268 CNS = system: SF-268 CNS
HCT-116 colon = system: HCT-116 colon
SK-MEL-5 melanoma = system: SK-MEL-5 melanoma
NCI-H522 lung = system: NCI-H522 lung
NCI-H460 lung = system: NCI-H460 lung
HCC-2998 colon = system: HCC-2998 colon
NCI/ADR-RES ovarian = system: NCI/ADR-RES ovarian
SK-MEL-2 melanoma = system: SK-MEL-2 melanoma
TK-10 renal = system: TK-10 renal
MCF7 breast = system: MCF7 breast
LOX IMVI melanoma = system: LOX IMVI melanoma
PC-3 prostate = system: PC-3 prostate
786-0 renal = system: 786-0 renal
K-562 leukemia = system: K-562 leukemia
IGROV1 ovarian = system: IGROV1 ovarian
HCT-15 colon = system: HCT-15 colon
U251 CNS = system: U251 CNS
DU-145 prostate = system: DU-145 prostate
ACHN renal = system: ACHN renal
MOLT-4 leukemia = system: MOLT-4 leukemia
UACC-257 melanoma = system: UACC-257 melanoma
NCI-H23 lung = system: NCI-H23 lung
RPMI-8226 leukemia = system: RPMI-8226 leukemia
OVCAR-8 ovarian = system: OVCAR-8 ovarian
UACC-62 melanoma = system: UACC-62 melanoma
MDA-N = system: MDA-N
OVCAR-4 ovarian = system: OVCAR-4 ovarian
MDA-MB-435 = system: MDA-MB-435
HOP-62 NSCLC = system: HOP-62 NSCLC
SK-OV-3 ovarian = system: SK-OV-3 ovarian
HOP-92 NSCLC = system: HOP-92 NSCLC
EKVX NSCLC = system: EKVX NSCLC
SF-295 CNS = system: SF-295 CNS
CAKI-1 renal = system: CAKI-1 renal
T-47D breast = system: T-47D breast
SNB-19 CNS = system: SNB-19 CNS
MALME-3M melanoma = system: MALME-3M melanoma
SK-MEL-28 melanoma = system: SK-MEL-28 melanoma

Measured: TGI

O=[N+]([O-])c1cccc(-c2csc(NNC3=NC/C(=C/c4ccc5c(c4)OCO5)S3)n2)c1
46.5 µM: SNB-75 CNS
96 µM: M14 melanoma
79 µM: SK-OV-3 ovarian
69 µM: SF-268 CNS
98.7 µM: COLO 205 colon
53 µM: NCI/ADR-RES ovarian
93.9 µM: MDA-MB-231 breast
43.3 µM: NCI-H226 lung
93.5 µM: RPMI-8226 leukemia
42.9 µM: NCI-H522 lung
69.7 µM: HS 578T breast
55.8 µM: PC-3 prostate
38.6 µM: SK-MEL-5 melanoma
37 µM: A498 renal
41 µM: EKVX NSCLC
85.6 µM: UO-31 renal
47.2 µM: OVCAR-8 ovarian
64.8 µM: SNB-19 CNS
47.4 µM: RXF 393 renal | IGROV1 ovarian
48.9 µM: NCI-H23 lung
29.2 µM: KM12 colon
43.7 µM: HOP-92 NSCLC
81.6 µM: TK-10 renal
56.5 µM: SK-MEL-2 melanoma | UACC-62 melanoma
65.4 µM: HT29 colon
not listed: MALME-3M melanoma | SK-MEL-28 melanoma
> 100 µM: all other assays above

CC(=O)O[C@@H]1[C@H](C(C)C)[C@@H](OC(C)=O)C/C(C)=C/CC[C@]2(C)O[C@@H]12
not listed: CCRF-CEM leukemia | SF-539 CNS
> 100 µM: all other assays above

CC[C@@H]1CC[C@@H]2[C@H](CC[C@]3(C)[C@@H](OC(C)=O)CC[C@@H]23)[C@H]1COC(C)=O
36.2 µM: K-562 leukemia
76.6 µM: M14 melanoma
48.7 µM: RPMI-8226 leukemia
37 µM: MOLT-4 leukemia
41.2 µM: CCRF-CEM leukemia
50.2 µM: MDA-MB-435
39.5 µM: HT29 colon
65.1 µM: SF-295 CNS
56.6 µM: MDA-MB-231 breast
62.2 µM: MDA-N
59.2 µM: A549 NSCLC
94.4 µM: A498 renal
82 µM: OVCAR-8 ovarian
60 µM: KM12 colon
73.8 µM: OVCAR-5 ovarian
69.8 µM: HOP-92 NSCLC
35.8 µM: MALME-3M melanoma
31.5 µM: LOX IMVI melanoma
31.7 µM: HCT-116 colon
34.5 µM: SK-MEL-2 melanoma
56 µM: HCT-15 colon
45 µM: U251 CNS
65.6 µM: UACC-257 melanoma
52.5 µM: NCI-H226 lung
92.5 µM: SF-268 CNS
75 µM: OVCAR-4 ovarian
56.1 µM: NCI-H522 lung
76 µM: NCI/ADR-RES ovarian
39.2 µM: HL-60(TB) leukemia
32.7 µM: SK-MEL-5 melanoma
73.6 µM: EKVX NSCLC
87.9 µM: BT-549 breast
79.1 µM: NCI-H23 lung
45.9 µM: RXF 393 renal | NCI-H460 lung
36.8 µM: COLO 205 colon
67.9 µM: SF-539 CNS
33.4 µM: HCC-2998 colon
88 µM: UACC-62 melanoma
34.6 µM: OVCAR-3 ovarian
60.9 µM: SN12C renal
> 100 µM: all other assays above

O=C1CC(NC(=O)C(F)(F)F)c2c(Br)sc(N3CCNCC3)c21 (stereo unspecified)
not listed: RPMI-8226 leukemia | HOP-62 NSCLC
> 100 µM: all other assays above
